pEC50: −log10 of the molar value.
Each compound was assayed against T1, soluble guanylate cyclase (Homo sapiens, UniProt Q02153) (assay: CHO cellular assay (cGMP production, Cisbio cGMP HTRF)). Conditions: CHO K1 cells overexpressing human GUCYA3/GUCYB3 (clone 8E10), 1 mM IBMX, 20 uM ODQ, 1 h room temperature, listed 0.5 nM means actual EC50 ≤0.5 nM (quantification limit).
T1 construct: expressed in transfected cells
Type: cell-based
From the text: Chinese hamster ovary (CHO) cells overexpressing soluble guanylate cyclase were generated to test the effect of sGC activators in a cellular context. Human cDNAs for GUCYA3 (RefSeq: NM_000856.3) and GUCYB3 (RefSeq: NM_000857.1) were amplified by PCR from a HUVEC (Human Umbilical Vein Endothelial Cells) cDNA library and cloned into mammalian expression vectors. CHO K1 cells (ATCC CCL-61) were transfected using Lipofectamine 2000 following manufacturer's instructions and stably expressing clones were identified by antibiotic selection. CHO GUCY clone 8E10 was used for subsequent experiments.
Cells were seeded at a density of 3000 cells/well in white 384-well proxyplates (Perkin Elmer) and incubated overnight, then the medium was removed and cells were washed with assay buffer (HBSS, 0.1% BSA, 1 mM IBMX, 20 uM ODQ). sGC activators were serially diluted in DMSO, then diluted in assay buffer prior to adding to cells (10 ul/well, final DMSO concentration 0.5%). Cells were incubated with compounds for 1 h room temperature, then assayed for cGMP production using Cisbio cGMP HTRF kit (62GM2PEC) according to manufacturer's instructions.
The EC50s are calculated based on the amount of cGMP interpolated from the standard curve, using a 4-parameter sigmoidal dose-response.
Compounds of invention are active on sGC activation. Data on Table 1 collected using the assay of Biological Example 1. The minimum EC50 quantification limit of the assay is 0.5 nM, therefore any compound listed as having an EC50 value of 0.5 nM has a actual EC50 of ≤0.5 nM.

T1 sequence (Q02108 whole entry partner): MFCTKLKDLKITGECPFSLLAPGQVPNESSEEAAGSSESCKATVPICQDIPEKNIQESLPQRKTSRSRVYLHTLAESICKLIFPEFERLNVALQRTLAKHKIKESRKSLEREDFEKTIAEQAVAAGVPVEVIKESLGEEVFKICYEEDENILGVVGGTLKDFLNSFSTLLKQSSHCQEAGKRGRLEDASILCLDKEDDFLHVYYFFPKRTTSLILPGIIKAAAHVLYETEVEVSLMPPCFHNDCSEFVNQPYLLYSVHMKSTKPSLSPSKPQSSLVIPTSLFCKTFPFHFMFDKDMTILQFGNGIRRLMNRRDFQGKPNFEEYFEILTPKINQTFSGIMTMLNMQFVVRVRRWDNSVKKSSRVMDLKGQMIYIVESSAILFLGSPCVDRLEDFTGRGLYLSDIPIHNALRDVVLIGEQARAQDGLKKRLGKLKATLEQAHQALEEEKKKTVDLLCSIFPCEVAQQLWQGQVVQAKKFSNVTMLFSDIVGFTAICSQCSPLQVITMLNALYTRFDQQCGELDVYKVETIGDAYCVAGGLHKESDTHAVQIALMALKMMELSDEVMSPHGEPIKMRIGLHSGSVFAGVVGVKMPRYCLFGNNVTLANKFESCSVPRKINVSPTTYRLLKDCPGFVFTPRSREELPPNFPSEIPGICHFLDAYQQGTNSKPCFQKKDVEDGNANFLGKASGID
T1 sequence (Q02153 whole entry): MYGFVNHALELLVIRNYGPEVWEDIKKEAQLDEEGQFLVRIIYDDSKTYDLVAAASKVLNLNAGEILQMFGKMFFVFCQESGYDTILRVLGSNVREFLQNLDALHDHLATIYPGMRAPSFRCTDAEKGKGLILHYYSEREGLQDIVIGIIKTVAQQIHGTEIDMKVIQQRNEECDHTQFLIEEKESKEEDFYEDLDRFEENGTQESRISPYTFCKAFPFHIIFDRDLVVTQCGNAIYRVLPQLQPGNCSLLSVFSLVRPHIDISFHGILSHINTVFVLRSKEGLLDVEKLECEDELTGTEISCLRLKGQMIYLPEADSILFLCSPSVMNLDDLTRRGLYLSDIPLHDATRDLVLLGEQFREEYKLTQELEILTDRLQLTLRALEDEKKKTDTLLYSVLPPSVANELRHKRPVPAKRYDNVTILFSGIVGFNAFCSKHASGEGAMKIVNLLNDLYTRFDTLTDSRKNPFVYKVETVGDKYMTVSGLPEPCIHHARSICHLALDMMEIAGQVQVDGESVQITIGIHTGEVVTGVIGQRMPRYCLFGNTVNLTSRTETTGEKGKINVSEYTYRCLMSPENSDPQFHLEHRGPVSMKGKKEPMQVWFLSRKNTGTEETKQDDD

Row | SMILES | pEC50
1 | Cc1cc(C2CCN(C(=O)C3CC3)CC2)ccc1OCC1=C(c2cccc(-n3ncc(C(=O)O)c3C(F)(F)F)c2)CC(C)CC1 (racemic) [Example 28, (±)-1-(6′-((4-(1-(Cyclopropanecarbonyl)piperidin-4-yl)-2-methylphenoxy)methyl)-3′-methyl-2′,3′,4′,5′-tetrahydro-[1,1-biphenyl]-3-yl)-5-(trifluoromethyl)-1H-pyrazole-4-carboxylic acid] | 7.66
2 | CC1CCCC(c2cccc(-n3ncc(C(=O)O)c3C(F)(F)F)n2)=C1COc1ccc2c(c1)CCN(Cc1ccccn1)C2 (racemic) [Example 29-1, (±)-1-(6-(3-Methyl-2-(((2-(pyridin-2-ylmethyl)-1,2,3,4-tetrahydroisoquinolin-6-yl)oxy)methyl)cyclohex-1-en-1-yl)pyridin-2-yl)-5-(trifluoromethyl)-1H-pyrazole-4-carboxylic acid] | 8.41
3 | O=C(O)c1cnn(-c2cccc(C3=C(COc4ccc([C@H]5CCN(C(=O)C6CC6)C[C@@H]5O)cc4)CCCC3)n2)c1C(F)(F)F (racemic) [Example 29-2, (±)-1-(6-(2-((4-((3,4-trans)-1-(cyclopropanecarbonyl)-3-hydroxypiperidin-4-yl)phenoxy)methyl)cyclohex-1-en-1-yl)pyridin-2-yl)-5-(trifluoromethyl)-1H-pyrazole-4-carboxylic acid] | 6.38
4 | Cc1cc(C2CCN(C(=O)C3CC3)CC2)ccc1OCC1=C(c2cccc(-n3ncc(C(=O)O)c3C(F)(F)F)n2)CC(C)CC1 (single isomer, unassigned; (+)) [Example 12 (+), (+)-1-(6-(2-((4-(1-(cyclopropanecarbonyl)piperidin-4-yl)-2-methylphenoxy)methyl)-5-methylcyclohex-1-en-1-yl)pyridin-2-yl)-5-(trifluoromethyl)-1H-pyrazole-4-carboxylic acid] | ≥ 9.30
5 | CCc1cc(OCC2=C(c3cccc(-n4ncc(C(=O)O)c4C(F)(F)F)n3)CCCC2C)ccc1C1CCN(C(=O)C2CC2)CC1 (single isomer, unassigned; (+)) [Example 13a, (+)-1-(6-(2-((4-(1-(Cyclopropanecarbonyl)piperidin-4-yl)-3-ethylphenoxy)methyl)-3-methylcyclohex-1-en-1-yl)pyridin-2-yl)-5-(trifluoromethyl)-1H-pyrazole-4-carboxylic acid] | 9.00
6 | Cc1cc(C2CCN(C(=O)C3CC3)CC2)ccc1OCC1=C(c2cccc(-n3ncc(C(=O)O)c3C(F)(F)F)n2)CCCC1C (single isomer, unassigned; (+)) [Example 15a, (+)-1-(6-(2-((4-(1-(cyclopropanecarbonyl)piperidin-4-yl)-2-methylphenoxy)methyl)-3-methylcyclohex-1-en-1-yl)pyridin-2-yl)-5-(trifluoromethyl)-1H-pyrazole-4-carboxylic acid] | ≥ 9.30
7 | CCc1cc(OCC2=C(c3cccc(-n4ncc(C(=O)O)c4C)n3)CCCC2C)ccc1C1CCN(C(=O)C2CC2)CC1 (single isomer, unassigned; (+)) [Example 16a, (+)-1-(6-(2-((4-(1-(Cyclopropanecarbonyl)piperidin-4-yl)-3-ethylphenoxy)methyl)-3-methylcyclohex-1-en-1-yl)pyridin-2-yl)-5-methyl-1H-pyrazole-4-carboxylic acid] | ≥ 9.30
8 | CCc1cc(OCC2=C(c3cccc(-n4ncc(C(=O)O)c4CC)n3)CCCC2C)ccc1C1CCN(C(=O)C2CC2)CC1 (single isomer, unassigned; (+)) [Example 17a, (+)-1-(6-(2-((4-(1-(Cyclopropanecarbonyl)piperidin-4-yl)-3-ethylphenoxy)methyl)-3-methylcyclohex-1-en-1-yl)pyridin-2-yl)-5-ethyl-1H-pyrazole-4-carboxylic acid] | ≥ 9.30
9 | CCc1cc(OCC2=C(c3cccc(-n4ncc(C(=O)O)c4C(F)F)n3)CCCC2C)ccc1C1CCN(C(=O)C2CC2)CC1 (single isomer, unassigned; (+)) [Example 20(b) (+), (+)-1-(6-(2-((4-(1-(cyclopropanecarbonyl)piperidin-4-yl)-3-ethylphenoxy)methyl)-3-methylcyclohex-1-en-1-yl)pyridin-2-yl)-5-(difluoromethyl)-1H-pyrazole-4-carboxylic acid] | ≥ 9.30
10 | CCc1cc(OCC2=C(c3cccc(-n4ncc(C(=O)O)c4C(F)(F)F)n3)CCC2C)ccc1C1CCN(C(=O)C2CC2)CC1 (single isomer, unassigned; (+)) [Example 22(b) (+), (+)-1-(6-(2-((4-(1-(cyclopropanecarbonyl)piperidin-4-yl)-3-ethylphenoxy)methyl)-3-methylcyclopent-1-en-1-yl)pyridin-2-yl)-5-(trifluoromethyl)-1H-pyrazole-4-carboxylic acid] | 9.00
11 | Cc1cc(C2CCN(C(=O)C3CC3)CC2)ccc1OCC1=C(c2cccc(-n3ncc(C(=O)O)c3C(F)(F)F)n2)CC(C)CC1 (single isomer, unassigned; (-)) [Example 12 (−), (−)-1-(6-(2-((4-(1-(cyclopropanecarbonyl)piperidin-4-yl)-2-methylphenoxy)methyl)-5-methylcyclohex-1-en-1-yl)pyridin-2-yl)-5-(trifluoromethyl)-1H-pyrazole-4-carboxylic acid] | ≥ 9.30
12 | CCc1cc(OCC2=C(c3cccc(-n4ncc(C(=O)O)c4C(F)(F)F)n3)CCCC2C)ccc1C1CCN(C(=O)C2CC2)CC1 (single isomer, unassigned; (-)) [Example 13b, (−)-1-(6-(2-((4-(1-(Cyclopropanecarbonyl)piperidin-4-yl)-3-ethylphenoxy)methyl)-3-methylcyclohex-1-en-1-yl)pyridin-2-yl)-5-(trifluoromethyl)-1H-pyrazole-4-carboxylic acid] | 8.05
13 | Cc1cc(C2CCN(C(=O)C3CC3)CC2)ccc1OCC1=C(c2cccc(-n3ncc(C(=O)O)c3C(F)(F)F)n2)CCCC1C (single isomer, unassigned; (-)) [Example 15b, (−)-1-(6-(2-((4-(1-(Cyclopropanecarbonyl)piperidin-4-yl)-2-methylphenoxy)methyl)-3-methylcyclohex-1-en-1-yl)pyridin-2-yl)-5-(trifluoromethyl)-1H-pyrazole-4-carboxylic acid] | 9.00
14 | CCc1cc(OCC2=C(c3cccc(-n4ncc(C(=O)O)c4C)n3)CCCC2C)ccc1C1CCN(C(=O)C2CC2)CC1 (single isomer, unassigned; (-)) [Example 16b, (−)-1-(6-(2-((4-(1-(Cyclopropanecarbonyl)piperidin-4-yl)-3-ethylphenoxy)methyl)-3-methylcyclohex-1-en-1-yl)pyridin-2-yl)-5-methyl-1H-pyrazole-4-carboxylic acid] | 8.52
15 | CCc1cc(OCC2=C(c3cccc(-n4ncc(C(=O)O)c4CC)n3)CCCC2C)ccc1C1CCN(C(=O)C2CC2)CC1 (single isomer, unassigned; (-)) [Example 17b, (−)-1-(6-(2-((4-(1-(Cyclopropanecarbonyl)piperidin-4-yl)-3-ethylphenoxy)methyl)-3-methylcyclohex-1-en-1-yl)pyridin-2-yl)-5-ethyl-1H-pyrazole-4-carboxylic acid] | 8.85
16 | CCc1cc(OCC2=C(c3cccc(-n4ncc(C(=O)O)c4C(F)F)n3)CCCC2C)ccc1C1CCN(C(=O)C2CC2)CC1 (single isomer, unassigned; (-)) [Example 20b (−), (−)-1-(6-(2-((4-(1-(cyclopropanecarbonyl)piperidin-4-yl)-3-ethylphenoxy)methyl)-3-methylcyclohex-1-en-1-yl)pyridin-2-yl)-5-(difluoromethyl)-1H-pyrazole-4-carboxylic acid] | 8.70
17 | CCc1cc(OCC2=C(c3cccc(-n4ncc(C(=O)O)c4C(F)(F)F)n3)CCC2C)ccc1C1CCN(C(=O)C2CC2)CC1 (single isomer, unassigned; (-)) [Example 22(b) (−), (−)-1-(6-(2-((4-(1-(cyclopropanecarbonyl)piperidin-4-yl)-3-ethylphenoxy)methyl)-3-methylcyclopent-1-en-1-yl)pyridin-2-yl)-5-(trifluoromethyl)-1H-pyrazole-4-carboxylic acid] | 8.26
18 | CCc1cc(OCC2=C(c3cccc(-n4ncc(C(=O)O)c4CC)n3)CCCC2C)ccc1C1CCN(C(=O)[C@H](C)O)CC1 (single isomer, unassigned; diastereomer-1) [Example 18a] | ≥ 9.30
19 | CCc1cc(OCC2=C(c3cccc(-n4ncc(C(=O)O)c4C)n3)CCCC2C)ccc1C1CCN(C(=O)[C@H](C)O)CC1 (single isomer, unassigned; diastereomer-1) [Example 19a] | ≥ 9.30
20 | CCc1cc(OCC2=C(c3cccc(-n4ncc(C(=O)O)c4CC)n3)CCCC2C)ccc1C1CCN(C(=O)[C@H](C)O)CC1 (single isomer, unassigned; diastereomer-2) [Example 18b] | 8.05
21 | CCc1cc(OCC2=C(c3cccc(-n4ncc(C(=O)O)c4C)n3)CCCC2C)ccc1C1CCN(C(=O)[C@H](C)O)CC1 (single isomer, unassigned; diastereomer-2) [Example 19b] | 8.10
